Measured values taken from article PMC5655689, “Therapeutic potential of the phosphino Cu(I) complex (HydroCuP) in the treatment of solid tumors” (Scientific Reports, 2017).

Assays:
[1] = tested on: LoVo human colon cancer spheroids; experiment: 3D spheroid cell viability, acid phosphatase (APH) assay, LoVo; format: cell-based; details: 72 h
Method: In order to improve the predictive capacity of the in vitro assays, we tested HydroCuP activity in two 3D cell cultures of human colon cancer cells, HCT-15 and LoVo. The colon cancer spheroids were treated with HydroCuP for 72 h and the cell viability was assessed by means of the acid phosphatase (APH) assay (Fig. 1, panel A).
Figure 1 Activity in 3D cell cultures. (A) Spheroids (2.5 × 10^3 cells/well) were treated for 72 h with increasing concentrations of tested compounds. The growth inhibitory effect was evaluated by means of APH test. IC50 values were calculated from the dose-survival curves by four parameter logistic model (P < 0.05). SD = standard deviation.
Spheroids were initiated in liquid overlay by seeding 2.5 × 10^3 HCT-15 and LoVo cells/well in phenol red-free RPMI-1640 medium (Sigma Chemical Co.), containing 10% FCS and supplemented with 20% methyl cellulose stock solution. A total of 150 μl of this cell suspension was transferred to each well of a round bottom non-tissue culture treated 96 well-plate (Greiner Bio-one, Kremsmünster, Austria) to allow spheroid formation within 72 h.
A modified APH assay, which is based on quantification of cytosolic acid phosphatase activity, was used for determining cell viability in spheroids. Briefly, the pre-seeded spheroids were treated with fresh medium containing the compound to be studied at the appropriate concentration (range 5–150 μM). Triplicate cultures were established for each treatment. After 72 h, each well was treated with 100 μL of the assay buffer (0.1 M sodium acetate, 0.1% Triton-X-100, supplemented with ImmunoPure p-nitrophenyl phosphate; Sigma Chemical Co.) and, following 3 h of incubation, 10 μL of 1 M NaOH solution were added. The inhibition of the cell growth induced by the tested complexes was detected by measuring the absorbance of each well at 405 nm, using a Bio-Rad 680 microplate reader. Mean absorbance for each drug dose was expressed as a percentage of the control untreated well absorbance (T/C) and plotted vs drug concentration. IC50 values, the drug concentrations that reduce the mean absorbance at 405 nm 50% of those in the untreated control wells, were calculated by four-parameter logistic (4-PL) model. Evaluation was based on means from at least four independent experiments.

[2] = tested on: p-PERK and p-IRE1 (UPR pathway); experiment: IHC analysis of p-PERK and p-IRE1 in LLC tumor samples; format: in vivo, mouse; details: later-stage regimen
Description: In order to investigate the in vivo activation of the UPR induced by HydroCuP, the levels of the phospho-PERK (p-PERK) and phospho-IRE1 (p-IRE1) were detected in tumor samples derived from treated LCC-bearing mice (following later-stage regimen). […] In control samples, p-PERK staining was found moderate in cytoplasm (in about 40% cell population) and intense in perinuclear-ER (about 5% of cell population). […] With regard to the […], p-IRE1, control tumors were weakly positive in cytoplasm (in about 15% cell population).
Figure 6 IHC analysis of p-PERK and p-IRE1 expression in LLC tumor samples. (A) Pictures show representative patterns of p-PERK and p-IRE1 expression by IHC in control LLC tumor samples (a and c) and in HydroCuP-treated tumor samples (b and d); magnification: ×10. (B) p-PERK (a) and p-IRE1 (b) values, evaluated in LLC tumor sections. The quantification of IHC images was performed by using Image J software. Columns indicate quantitative analysis in n = 3 different tumors per group; *P < 0.05.
To evaluate p-PERK and p-IRE1 expression, five-micron-thick formalin-fixed, paraffin-embedded (FFPE) tumor samples of LLC models (3 tumors/group, 3 sections/tumor and 3 images/sections) were stained by IHC using anti-human p-PERK (Thr981, Santa Cruz) or p-IRE1 (Ser724, Abcam) primary antibodies according to the manufacturer’s instructions. IHC was performed using a Leica Bond III Autostainer (Leica). Antigen retrieval was performed in citrate buffer for 15 min. Sections were counter-stained with Mayer’s haematoxylin. IHC results were evaluated by one experienced pathologist with no prior knowledge of experimental data. The quantification of IHC images was performed by using Image J software.

[3] = tested on: LoVo colorectal oxaliplatin-sensitive xenograft; details: mouse, in vivo, ip, 30 mg/kg
Method: (§1) To this aim, we developed the OXP-sensitive and OXP-resistant LoVo xenografts in BALB/c nu/nu mice. […] OXP-sensitive or OXP-resistant LoVo cells (1 × 10^7) were injected in the flank of mice. Once tumor was established (tumor volumes of about 0.4 cm^3, around 14 days after tumor inoculation), mice were randomly divided into six groups (6 animals per group, 8 controls). The HydroCuP-treated groups (6 mice each group) received daily 30 mg/kg by i.p. injection and the OXP-treated group was given 2 mg/kg by i.p. injection. At day 30, animals were sacrificed, and the inhibition of tumor growth was determined (Fig. 4, panel A). Measurements of body weights were recorded from day 14 every 2 days until the experimental endpoint (Fig. 4, panel B).
(§2) (A) LoVo and LoVo-OXP tumor xenografts in 6-week-old BALB/c nu/nu mice by injecting 1 × 10^7 tumor cells subcutaneously on the left dorsal flank. After 24 h from tumor implantation, mice randomly divided into six groups (6 animals per group). Chemotherapy delayed until day 14 (tumor volumes of about 0.4 cm^3). From day 14, HydroCuP dosed daily at 30 mg/kg i.p., OXP dosed daily at 2 mg/kg i.p. At day 30, animals sacrificed, and the inhibition of tumor growth determined by comparing the volume of the control group and the treatment group expressed as percentage referred to the control animals. Error bars indicate the S.D. *p < 0.05, **p < 0.01, with respect to control. […] Body weight was measured every two days and was taken as a parameter of systemic toxicity. The error bars indicate the S.D. **P < 0.01; *P < 0.05.
(§3) LoVo and LoVo-OXP tumor xenografts were established in 6-week-old BALB/c nu/nu mice by injecting 1 × 10^7 tumor cells subcutaneously (100 μL in serum free medium) on the left dorsal flank. After 24 h from tumor implantation, mice were randomly divided into six groups (6 animals per group, 8 controls). Chemotherapy was delayed until the tumor was about 0.4 cm^3 (day 14). From day 14, HydroCuP was dosed daily at 30 mg/kg i.p. whereas OXP was dosed daily at 2 mg/kg i.p. Measurements of body weights and tumor volumes were recorded from day 14 every 2 days until the experimental endpoint. The long axis (L) and the short axis (S) were measured with callipers, and the tumor volume (V) was calculated using the following equation: V = SxSxL/2. At day 30, animals were sacrificed, and the inhibition of tumor growth was determined by comparing the volume of the control group and the treatment group expressed as percentage referred to the control animals.

[4] = tested on: LoVo colorectal oxaliplatin-resistant xenograft; details: mouse, in vivo, ip, 30 mg/kg
Method: as §1, §2, §3

[5] = tested on: 2D human cancer cell cultures; set-up: method as in PMID 18251492, PMID 21388518; details: cited from earlier work
[6] = set-up: method as in PMID 21388518, PMID 20486256; details: pH 7.4; cited from earlier work
[7] = tested on: DRG explants from 15 day-embryonic Sprague-Dawley rats; experiment: Neurotoxicity: neurite elongation in DRG explants; details: 48 h, DRG explants with NGF; OXP 5, 7.5, 10 μM; HydroCuP 5, 10, 20 μM
Method: To investigate the potential neurotoxic effect of HydroCuP, we employed a well-established in vitro model based on organotypic cultures of DRG from 15-day-old rat embryos. Neurite elongation under NGF influence was evaluated in DRG explants. […] For comparison purposes, the effect induced by the reference drugs OXP and CDDP was also tested.
OXP and HydroCuP toxicity at 48 h in DRG explants from 15 day-embryonic Sprague-Dawley rats. Representative images of neurite length in maturing DRG explants with different concentrations of OXP and HydroCuP (A). Bar: 500 µm.
DRG from E15 Sprague-Dawley rats (Envigo, San Pietro al Natisone, Italy) were aseptically removed and cultured onto a single layer of rat tail collagen surfaces in 35-mm dishes as previously described[36].
The DRG were incubated in AN2 medium [MEM added with 1.4 mM L-glutamine (Euroclone, Pero, Italy), 10% calf bovine serum (Hyclone, Thermo Scientific, Logan, UT) 50 µg/ml ascorbic acid, 0.6% glucose (Sigma-Aldrich) in the presence of 5 ng/ml nerve growth factor (NGF; Life Technologies, Monza, Italy) in a 5% CO2 humidified incubator at 37 °C.
To evaluate the neurotoxicity of HydroCuP and OXP, the DRG explants were treated for 2 h with NGF and subsequently exposed to each drug at different concentrations for 48 h. OXP was tested at 5, 7.5 and 10 μM while 5, 10 and 20 μM of HydroCuP was used. DRG treated with AN2 medium supplemented with 5 ng/ml NGF alone were used as controls. Phase-contrast micrographs were taken, and the length of the longest neurite in each DRG was measured by Image J (NIH, Bethesda, MD), using a standard calibration grating photographed at the same magnification. A compound is considered neurotoxic when the mean neurite elongation is reduced by 50% or more after drug exposure vs control.

[8] = tested on: LoVo colorectal oxaliplatin-resistant xenograft; experiment: In vivo activity toward LoVo-OXP (OXP-resistant) tumor xenograft in BALB/c nu/nu mice; details: 30 mg/kg daily i.p. from day 14, day 30
Method: as §1, §2, §3

Compound: F[P-](F)(F)(F)(F)F.OC[P+](CO)(CO)[Cu-3]([P+](CO)(CO)CO)([P+](CO)(CO)CO)[P+](CO)(CO)CO [HydroCuP, [Cu(thp)4][PF6]]
- IC50 fold lower than CDDP [1]: about 2.5
- IC50 ([1]; APH test, read-out: IC50 (μM) ± SD LoVo): 23.3 ± 3.2 µM
- Cytoplasmic p-PERK positivity vs control [2]: no difference in cytoplasmic p-PERK positivity
- Perinuclear-ER p-PERK staining ([2]; control about 5% of cell population): about 30%
- Cytoplasmic p-IRE1 positivity (cell population) ([2]; control about 15% cell population): about 35%
- Body weight and health vs control group [3]: No significant difference in body weight
- Body weight and health vs control group [4]: No significant difference in body weight
- Fold more cytotoxic than CDDP [5]: up to 50
- Fold more cytotoxic than OXP [5]: ≤ 30
- Water solubility [6]: > 2000 µg/mL
- Neurotoxic effect (neurite elongation) [7]: no neurotoxic effect even at the highest concentrations
- Inhibition of tumor growth (decrease in final tumor volume) [8]: about 65%
